Where a name gives a salt, the structure may show the parent alone.

For the experiment, the target named is T1, human Y5 receptor (hNPY-5) (Homo sapiens, UniProt Q15761).
T1 construct: expressed in transfected cells; host or cells: mouse fibroblast LM(tk-) cells, e.g. L-hY5-7 (ATCC CRL-11995)
T1 sequence (Q15761 1-445): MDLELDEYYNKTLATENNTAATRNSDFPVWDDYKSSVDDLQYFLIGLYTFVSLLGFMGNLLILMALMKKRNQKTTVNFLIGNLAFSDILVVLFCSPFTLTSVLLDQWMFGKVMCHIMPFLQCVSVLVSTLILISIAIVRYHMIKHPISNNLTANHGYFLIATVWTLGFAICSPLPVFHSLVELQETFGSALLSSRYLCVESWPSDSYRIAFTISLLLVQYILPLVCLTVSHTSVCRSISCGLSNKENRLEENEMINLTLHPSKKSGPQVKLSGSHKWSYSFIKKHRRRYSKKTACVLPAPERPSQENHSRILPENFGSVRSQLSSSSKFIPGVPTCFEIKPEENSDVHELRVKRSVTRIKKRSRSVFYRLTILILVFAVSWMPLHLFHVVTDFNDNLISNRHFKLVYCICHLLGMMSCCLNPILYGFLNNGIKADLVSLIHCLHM
The experiment can be described thus: Radioligand binding to membranes, cloned human Y5 receptor. To be noted: cloned human NPY Y5 receptor, radioligand competition binding; Tables 1-3; read-out: Ki, nM hNPY-5. As to the method: Binding of the compounds of the present invention to human Y1, Y2, Y4, and Y5 receptors was evaluated using stably transfected 293 or LM(tk-) cells as described above. Stably transfected cell lines which may be used for binding assays include, for example, for the human Y1 receptor, 293-hY1-5 (deposited Jun. 4, 1996, under ATCC Accession No. CRL-12121), for the human Y2 receptor, 293-hY2-10 (deposited Jan. 27, 1994, under ATCC Accession No. CRL-11537), for the human Y4 receptor, L-hY4-3 (deposited Jan. 11, 1995, under ATCC Accession No. CRL-11779), and for human Y5 receptor, L-hY5-7 (deposited Nov. 15, 1995, under ATCC Accession No. CRL-11995). These cell lines were deposited with the American Type Culture Collection (ATCC), 10801 University Blvd., Manassas, Va. 20110-2209, U.S.A. under the provisions of the Budapest Treaty for the International Recognition of the Deposit of Microorganisms for the Purposes of Patent Procedure.
Membranes were harvested from COS-7 cells 48 hours after transient transfection. Adherent cells were washed twice in ice-cold phosphate buffered saline (138 mM NaCl, 8.1 mM Na2HPO4, 2.5 mM KCl, 1.2 mM KH2PO4, 0.9 mM CaCl2, 0.5 mM MgCl2, pH 7.4) and lysed by sonication in ice-cold sonication buffer (20 mM Tris-HCl, 5 mM EDTA, pH 7.7). Large particles and debris were cleared by low speed centrifugation (200×g, 5 min, 4° C.). Membranes were collected from the supernatant fraction by centrifugation (32,000×g, 18 min, 4° C.), washed with ice-cold hypotonic buffer, and collected again by centrifugation (32,000×g, 18 min, 4° C.). The final membrane pellet was resuspended by sonication into a small volume of ice-cold binding buffer (˜1 ml for every 5 plates: 10 mM NaCl, 20 mM HEPES, 0.22 mM KH2PO4, 1.26 mM CaCl2, 0.81 mM MgSO4, pH 7.4). Protein concentration was measured by the Bradford method (Bradford, 1976) using Bio-Rad Reagent, with bovine serum albumin as a standard. Membranes were held on ice for up to one hour and used fresh, or flash-frozen and stored in liquid nitrogen.
Membranes were prepared similarly from 293, LM(tk-), and NIH-3T3 cells. To prepare membranes from baculovirus infected cells, 2×10^7 Sf21 cells were grown in 150 mm tissue culture dishes and infected with a high-titer stock of hY5BB3. Cells were incubated for 2-4 days at 27° C., no CO2 before harvesting and membrane preparation as described above.
Membrane suspensions were diluted in binding buffer supplemented with 0.1% bovine serum albumin to yield an optimal membrane protein concentration so that ^125I-PYY (or alternative radioligand such as ^125I-NPY, ^125I-PYY3-36, or ^125I-[Leu^31Pro^34]PYY) bound by membranes in the assay was less than 10% of ^125I-PYY (or alternative radioligand) delivered to the sample (100,000 dpm/sample=0.08 nM for competition binding assays). ^125I-PYY (or alternative radioligand) and peptide competitors were also diluted to desired concentrations in supplemented binding buffer. Individual samples were then prepared in 96-well polypropylene microtiter plates by mixing 125I-PYY (25 μL) (or alternative radioligand), competing peptides or supplemented binding buffer (25 μL), and finally, membrane suspensions (200 μL). Samples were incubated in a 30° C. water bath with constant shaking for 120 min. Incubations were terminated by filtration over Whatman GF/C filters (pre-coated with 1% polyethyleneimine and air-dried before use), followed by washing with 5 mL of ice-cold binding buffer. Filter-trapped membranes were impregnated with MeltiLex solid scintillant (Wallac, Turku, Finland) and counted for ^125I in a Wallac Beta-Plate Reader. Alternatively, incubations were carried out in GF/C filter plates (pre-coated with 1% polyethyleneimine and air-dried before use), followed by vacuum filtration and three washes of 300 μL of ice-cold binding buffer. 50 μL of UltimaGold (Packard) scintillant were added and counted for ^125I in a Wallac MicroBeta Trilux. […]
On the technique in general: In a radioligand displacement assay an active substance lowers the binding of a labelled ligand.
As a reminder, the Ki is a dissociation constant, usually derived from enzyme kinetics or from competition with a known ligand. In the case of `COc1ccc2c(c1)CCCc1sc(N[C@H]3CC[C@H](CNS(=O)(=O)C(C)C)CC3)nc1-2` [Example 73, trans-1-Aza-4,5-dihydro-2-(4-isopropylsulfonyl-aminomethyl)-cyclohexylamino-8-methoxy-3-thia-benzo[e]-azulene], the Ki amounted to 8.7 nM.

Consider `CC(C)S(=O)(=O)NCCOCCNc1nc2c(s1)CCCc1ccc(F)cc1-2` [Example 69, 1-Aza-9-fluoro-4,5-dihydro-2-(2-(2-isopropyl-sulfonylamino)-ethoxy)ethylamino-3-thia-benzo[e]-azulene], for which the inhibition constant Ki turned out to be 4.1 nM.

For the compound `COc1cccc(-c2csc(N[C@H]3CC[C@H](CNS(C)(=O)=O)CC3)n2)c1` [Example 93, trans-4-(3-Methoxy)phenyl-2-(4-methylsulfonylamino-methyl)-cyclohexylaminothiazole], the Ki is 150 nM.

Regarding `COc1ccc2c(c1)CCCc1sc(NC[C@H]3CC[C@H](NS(C)(=O)=O)CC3)nc1-2` [Example 71, trans-1-Aza-4,5-dihydro-8-methoxy-2-(4-methylsulfonyl-amino)cyclohexylmethylamino-3-thia-benzo[e]azulene], the Ki came to 2.5 nM.

As for `CCS(=O)(=O)N[C@H]1CC[C@H](CNc2nc3c(s2)CCCc2ccc(F)cc2-3)CC1` [Example 52, trans-N2-(4-Ethylsulfonylamino)cyclohexylmethyl-9-fluoro-5,6-dihydro-4H-benzo[6,7]cyclohepta[d][1,3]-thiazol-2-amine], the Ki came out at 1.7 nM.

As to `COc1ccccc1-c1csc(N[C@H]2CC[C@H](CNS(C)(=O)=O)CC2)n1` [Example 91, trans-4-(2-Methoxy)phenyl-2-(4-methylsulfonylamino-methyl)-cyclohexylamino-1,3-thiazole hydrochloride], the Ki came to 12.3 nM.

In the case of `COc1ccc2c(c1)-c1nc(NC[C@H]3CC[C@H](NS(C)(=O)=O)CC3)sc1CCO2` [Example 63, trans-1-Aza-4,5-dihydro-9-methoxy-2-{4-methylsulfonyl-amino}cyclohexylmethylamino-6-oxa-3-thia-benzo[e]azulene], the Ki was determined as 31 nM.

In the case of `CCCN(C=O)C[C@H]1CC[C@H](Nc2nc3c(s2)CCCc2ccc(F)cc2-3)CC1` [Example 82, trans-1-Aza-9-fluoro-4,5-dihydro-2-(4-(N-propyl-formamido)-methyl)cyclohexylamino-3-thia-benzo[e]-azulene], the Ki is 11.9 nM.

In the case of `CN(C)S(=O)(=O)NCCCCCNc1nc2c(s1)CCCc1ccc(F)cc1-2` [Example 2, 1-Aza-9-fluoro-4,5-dihydro-2-{5-(dimethyl-aminosulfonyl-amino)pentyl}amino-3-thia-benzo[e]azulene], the Ki is 1.6 nM.

`COc1cccc2c1OCCc1sc(NC[C@H]3CC[C@H](NS(=O)(=O)N(C)C)CC3)nc1-2` [Example 66, trans-1-Aza-4,5-dihydro-7-methoxy-2-{4-dimethylamino-sulfonylamino}cyclohexylmethylamino-6-oxa-3-thia-benzo[e]azulene]: the Ki turned out to be 2 nM.

As to `COc1ccc2c(c1)CCCc1sc(N[C@H]3CC[C@H](CNS(=O)(=O)N4CCOCC4)CC3)nc1-2` [Example 78, trans-N2-(4-(1-Morpholinylsulfonylaminomethyl)-cyclohexyl-8-methoxy-5,6-dihydro-4H-benzo[6,7]-cyclohepta[d][1,3]thiazol-2-amine hydrochloride], the inhibition constant (Ki) turned out to be 6 nM.

`COc1ccc(C)cc1S(=O)(=O)NCCOCCNc1nc2c(s1)CCCc1ccc(F)cc1-2` [Example 58, 1-Aza-9-fluoro-4,5-dihydro-2-{2-[2-(2-methoxy-5-methylphenyl)sulfonylamino]ethoxy}ethylamino-3-thia-benzo[e]azulene]: the Ki was determined as 3 nM.

As for `CCOC(=O)N[C@H]1CC[C@H](CNc2nc3c(s2)CCCc2ccc(F)cc2-3)CC1` [Example 68, trans-N2-(4-Ethoxycarbonylamino)cyclohexylmethyl-9-fluoro-5,6-dihydro-4H-benzo[6,7]cyclohepta[d][1,3]-thiazol-2-amine hydrochloride], the Ki was 4 nM.

Source of the values: patent US7273880B2, “Selective NPY (Y5) antagonists” (H. Lunbeck A/S, priority 1999, dated 2007).
